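Dose response: 5 concentrations. Exposure: 48 h. Format: 96-well plates. Endpoint: linear interpolation; highest concentration if not reached. At the GI50, growth is halved. TGI: concentration producing complete growth inhibition.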
Columns and labels:
Test in all cases: NCI-60 cell line screen, 48 h
[1] = tested on: MCF7 breast
[2] = tested on: DU-145 prostate
[3] = tested on: HS 578T breast
[4] = tested on: PC-3 prostate
[5] = tested on: MDA-MB-231 breast
[6] = tested on: MDA-MB-435

SMILES	GI50 [1] [µM]	TGI [1] [µM]	GI50 [2] [µM]	TGI [2] [µM]	GI50 [3] [µM]	TGI [3] [µM]	GI50 [4] [µM]	TGI [4] [µM]	GI50 [5] [µM]	TGI [5] [µM]	GI50 [6] [µM]	TGI [6] [µM]
CCCc1cc(=O)oc2c(C(=O)CC(C)C)c(O)c(CC=C(C)C)c(O)c12	7.83	> 50	14.4	> 50	13.4	> 50	6.22	34.3	9.81	24.7	11.8	43.1
COc1cc2c(cc1OC)C(CCc1ccc(Cl)cc1)N(C)CC2 (stereo unspecified)	21.2	47	51.9	> 100	18.3	51.4	20.1	> 100	16.3	39.1	16.3	41.2
Cc1cccc(CN(C)c2ccc(CO)c(Cl)c2)c1	1.54	21.3	30.8	> 100	22.5	> 83.3	22.2	96.3	21.9	> 86.2	17.2	49.3
C=C1CC[C@@H]2C(C)(C)[C@@H](O)CC[C@@]2(C)[C@@H]1COc1ccc2ccc(=O)oc2c1	8.02	24.7	17.3	48.2	15.4	49.5	5.71	21.8	15.4	31.8	13.6	27.6
O=C1NC(=NCC(CO)c2ccccc2)S/C1=C\c1ccc2ncccc2c1 (stereo unspecified)	12.4	> 25	18.4	> 25	14.7	> 25	> 25	> 25	> 25	> 25	11.3	> 25
O=C(Nc1cccc(Cl)c1)Nc1cccc(Cl)c1	5.79	> 100	–	–	> 100	> 100	2.54	> 100	18.2	> 100	–	–
COC(=O)/C(C#N)=C\N1CCN(C(=O)c2ccco2)C1=S	–	–	3.54	14	–	–	6.82	63.4	4.17	15.8	6.82	46.5
Cc1ccc(/C=C(\C#N)n2nnc3cc(Cl)c(Cl)cc32)cc1	1.88	> 100	3.27	> 100	2.83	> 100	–	–	2.7	17.2	0.909	6.8
O=C(Oc1cccnc1)c1ccccc1Nc1ccnc(C(F)(F)F)c1	0.0865	> 45.5	0.273	3.17	4.13	> 100	0.449	> 100	0.233	> 62.2	–	–

— PubChem BioAssay (NCI)
